Tests used:
[1] = biological target: T1, RARβ (Homo sapiens, UniProt P10826); conditions: cited from earlier work
T1 sequence (P10826 1-455): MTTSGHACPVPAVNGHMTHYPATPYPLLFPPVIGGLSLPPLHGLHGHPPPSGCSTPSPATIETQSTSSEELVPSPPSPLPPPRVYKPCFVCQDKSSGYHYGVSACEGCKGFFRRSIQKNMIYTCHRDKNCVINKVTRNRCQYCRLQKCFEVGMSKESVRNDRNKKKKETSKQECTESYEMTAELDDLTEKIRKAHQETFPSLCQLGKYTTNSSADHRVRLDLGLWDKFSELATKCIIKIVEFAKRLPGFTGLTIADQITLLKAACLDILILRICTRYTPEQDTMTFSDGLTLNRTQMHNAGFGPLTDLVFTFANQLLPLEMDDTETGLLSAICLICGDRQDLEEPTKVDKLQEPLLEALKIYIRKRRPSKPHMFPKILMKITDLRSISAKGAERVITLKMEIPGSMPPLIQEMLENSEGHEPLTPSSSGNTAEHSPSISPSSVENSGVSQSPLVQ

[2] = biological target: T2, RARα (Homo sapiens, UniProt P10276); conditions: cited from earlier work
T2 sequence (P10276 1-462): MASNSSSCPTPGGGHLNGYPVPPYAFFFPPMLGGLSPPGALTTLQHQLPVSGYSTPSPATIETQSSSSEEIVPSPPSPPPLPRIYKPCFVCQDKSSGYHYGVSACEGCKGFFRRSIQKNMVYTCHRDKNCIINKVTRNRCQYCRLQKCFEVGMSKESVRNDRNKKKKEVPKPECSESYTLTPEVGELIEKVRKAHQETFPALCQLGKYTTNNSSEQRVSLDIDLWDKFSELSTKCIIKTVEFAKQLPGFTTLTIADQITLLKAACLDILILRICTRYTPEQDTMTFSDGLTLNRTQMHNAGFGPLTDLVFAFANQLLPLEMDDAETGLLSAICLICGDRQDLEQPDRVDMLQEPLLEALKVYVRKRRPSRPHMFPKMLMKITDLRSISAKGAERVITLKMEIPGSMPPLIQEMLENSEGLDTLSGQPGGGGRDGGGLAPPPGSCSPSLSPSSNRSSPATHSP

[3] = in vivo; cited from earlier work
[4] = test system: RXRs; conditions: cited from earlier work
[5] = test system: primary motor neurons; conditions: oxidative injury and excitotoxicity; cited from earlier work
[6] = cited from earlier work
[7] = test system: MAPK signaling; assay: MAPK signaling after direct injection into the striatum; type: in vivo; conditions: injected directly into the striatum of healthy mice
[8] = test system: ALS patients; conditions: subset of ALS patients, phase III study; cited from earlier work
[9] = chronic administration; cited from earlier work

SMILES: COc1ccc(-c2ccc3cc(C(=O)O)ccc3c2)cc1C12CC3CC(CC(C3)C1)C2 [Adapalene]
- AC50 [1]: 2.2 nM
- AC50 [2]: 9.2 nM
- clearance from the plasma [3]: rapidly cleared from the plasma
- interaction with RXRs [4]: does not interact
- cell death [5]: reduced cell death
- solubility in water [6]: less than 1 μg/ml
- activation of MAPK signaling [7]: equivalently activated MAPK signaling

SMILES: CC1=NN(c2ccccc2)C(=O)C1 [Edaravone]
- disease progression [8]: reduce disease progression

SMILES: C=C(c1ccc(C(=O)O)cc1)c1cc2c(cc1C)C(C)(C)CCC2(C)C [bexarotene]
- motor impairments, lifespan, neuroprotection [9]: reduced motor impairments, increased lifespan and was neuroprotective

Reference: US11446267B2, “Nanoparticle compositions, methods of fabrication, and use for drug delivery” (DIGNITY HEALTH, priority 2017, dated 2022)
